Test results as given in patent publication US10227361B2, “Fused imidazobenzothiazole compounds” (TORRENT PHARMACEUTICALS LIMITED, priority 2014, dated 2019).

Target: T1, purified recombinant human p38 alpha MAPK (Homo sapiens, UniProt Q16539)
T1 construct: purchased Millipore, USA
Assay: Inhibition of p38 alpha MAPK activity: TR-FRET kinase assay
Type: biochemical
Conditions: Concentration 1 μM
Experimental: Inhibition of p38 Alpha MAPK Activity: Time-Resolved Fluorescence Resonance Energy Transfer Kinase Standard Assay (TR-FRET Assay)
Compounds of present invention at various concentrations were premixed with DMSO. The experiment was initiated by mixing 0.5% 1.0% DMSO as vehicle/compounds with purified recombinant human p38 alpha MAPK (Millipore, USA) in the wells and 15 min incubation at RT. Thereafter, 30 nM of Biotinylated GST-ATF2 (Activation Transcription Factor2) and 100 μM of ATP were added in to the wells containing reaction mixture, followed by reincubation for 60 minutes at RT. Reaction was terminated by addition of 10 mM of EDTA and detection reagent containing anti-phosphothreonine ATF2 antibody (Perkin Elmer, USA) labelled with europium chelate and APC (Allophycocyanin) labeled streptavidin, into the reaction mixture which was further incubated for 60 minutes at room temperature. The degree of phosphorylation of the substrate (GST-ATF2) was measured using Envision multimode reader (Perkin Elmer). Percentage inhibition of p38 kinase activity was calculated by determining ratio of specific europium 665 nm energy transfer signal to reference 615 nm signal.

T1 sequence (Q16539 whole entry): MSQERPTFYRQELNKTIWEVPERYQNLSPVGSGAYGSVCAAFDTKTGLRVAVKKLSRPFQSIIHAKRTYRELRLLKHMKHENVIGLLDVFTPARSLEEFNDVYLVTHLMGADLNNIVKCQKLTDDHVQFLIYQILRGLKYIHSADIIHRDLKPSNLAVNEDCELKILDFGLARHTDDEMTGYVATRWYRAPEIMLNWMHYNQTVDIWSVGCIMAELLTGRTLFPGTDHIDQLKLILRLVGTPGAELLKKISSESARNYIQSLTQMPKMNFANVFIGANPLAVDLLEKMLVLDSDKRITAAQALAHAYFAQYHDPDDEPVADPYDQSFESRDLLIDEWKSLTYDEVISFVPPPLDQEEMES

With “1-(3-tert-butyl-1-phenyl-1H-pyrazol-5-yl)-3-(2-{[3-(hydroxymethyl)-2-methylimidazo[2,1-b][1,3]benzothiazol-7-yl]oxy}benzyl)urea [Compound 38]” the “P38α Inhibition” value was “+++++ (+++++ = Inhibition ≥80% ≤ 100%)”.
For “7-{[4-({[3-tert-butyl-1-(4-hydroxyphenyl)-1H-pyrazol-5-yl]carbamoyl}amino)phenyl]sulfanyl}-N-(2-hydroxyethyl)imidazo[2,1-b][1,3]benzothiazole-3-carboxamide [Compound 11]”, the “P38α Inhibition” value was “++ (++ = Inhibition ≥20% ≤ 40%)”.

Same assay, conditions: Concentration 1 μM; read-out: P38α Inhibition

First: CC(C)(C)c1cc(NC(=O)Nc2ccc(Oc3ccc4c(c3)sc3nc(C(=O)NCCN5CCOCC5)cn34)cc2)n(-c2ccc(O)c(Cl)c2)n1 [Compound 1, 7-[4-({[3-tert-butyl-1-(3-chloro-4-hydroxyphenyl)-1H-pyrazol-5-yl]carbamoyl}amino)phenoxy]-N-[2-(morpholin-4-yl)ethyl]imidazo[2,1-b][1,3]benzothiazole-2-carboxamide]
Second: Cc1ccc(-n2nc(C(C)(C)C)cc2NC(=O)Nc2ccc(Oc3ccc4c(c3)sc3nc(C(=O)NCCN5CCOCC5)cn34)cc2)cc1 [Compound 2, 7-[4-({[3-tert-butyl-1-(4-methylphenyl)-1H-pyrazol-5-yl]carbamoyl}amino)phenoxy]-N-[2-(morpholin-4-yl)ethyl]imidazo[2,1-b][1,3]benzothiazole-2-carboxamide]
The inhibition at 1 µM of the first is lower: 40 to 60% for the first, 60 to 80% for the second.

First: Cc1ccc(-n2nc(C(C)(C)C)cc2NC(=O)Nc2ccc(Oc3ccc4c(c3)sc3nc(C(=O)NC(CO)c5ccccc5)cn34)cc2)cc1 (stereo not drawn) [Compound 3, 7-[4-({[3-tert-butyl-1-(4-methylphenyl)-1H-pyrazol-5-yl]carbamoyl}amino)phenoxy]-N-(2-hydroxy-1-phenylethyl)imidazo[2,1-b][1,3]benzothiazole-2-carboxamide]
Second: Cc1ccc(-n2nc(C(C)(C)C)cc2NC(=O)Nc2ccc(Oc3ccc4c(c3)sc3nc(C(=O)NCCO)cn34)cc2)cc1 [Compound 4, 7-[4-({[3-tert-butyl-1-(4-methylphenyl)-1H-pyrazol-5-yl]carbamoyl}amino)phenoxy]-N-(2-hydroxyethyl)imidazo[2,1-b][1,3]benzothiazole-2-carboxamide]
The inhibition at 1 µM of the first is lower: 40 to 60% for the first, 80 to 100% for the second.

First: CCOC(=O)c1cnc2sc3cc(Oc4ccc(NC(=O)Nc5cc(C(C)(C)C)nn5-c5ccc(OC)c(Cl)c5)cc4)ccc3n12 [Compound 5, ethyl 7-[4-({[3-tert-butyl-1-(3-chloro-4-methoxyphenyl)-1H-pyrazol-5-yl]carbamoyl}amino)phenoxy]imidazo[2,1-b][1,3]benzothiazole-3-carboxylate]
Second: COc1ccc(-n2nc(C(C)(C)C)cc2NC(=O)Nc2ccc(Oc3ccc4c(c3)sc3ncc(C(=O)O)n34)cc2)cc1Cl [Compound 6, 7-[4-({[3-tert-butyl-1-(3-chloro-4-methoxyphenyl)-1H-pyrazol-5-yl]carbamoyl}amino)phenoxy]imidazo[2,1-b][1,3]benzothiazole-3-carboxylic acid]
The inhibition at 1 µM of the first is lower: 20 to 40% for the first, 80 to 100% for the second.

First: COc1ccc(-n2nc(C(C)(C)C)cc2NC(=O)Nc2ccc(Oc3ccc4c(c3)sc3ncc(C(=O)NCCO)n34)cc2)cc1Cl [Compound 7, 7-[4-({[3-tert-butyl-1-(3-chloro-4-methoxyphenyl)-1H-pyrazol-5-yl]carbamoyl}amino)phenoxy]-N-(2-hydroxyethyl)imidazo[2,1-b][1,3]benzothiazole-3-carboxamide]
Second: CC(C)(C)c1cc(NC(=O)Nc2ccc(Oc3ccc4c(c3)sc3ncc(C(=O)O)n34)cc2)n(-c2ccc(O)c(Cl)c2)n1 [Compound 8, 7-[4-({[3-tert-butyl-1-(3-chloro-4-hydroxyphenyl)-1H-pyrazol-5-yl]carbamoyl}amino)phenoxy]imidazo[2,1-b][1,3]benzothiazole-3-carboxylic acid]
The inhibition at 1 µM of the first is lower: 60 to 80% for the first, 80 to 100% for the second.

`CC(C)(C)c1cc(NC(=O)Nc2ccc(Sc3ccc4c(c3)sc3ncc(C(=O)O)n34)cc2)n(-c2ccc(O)cc2)n1` [Compound 9, 7-{[4-({[3-tert-butyl-1-(4-hydroxyphenyl)-1H-pyrazol-5-yl]carbamoyl}amino)phenyl]sulfanyl}imidazo[2,1-b][1,3]benzothiazole-3-carboxylic acid] and `COc1ccc(-n2nc(C(C)(C)C)cc2NC(=O)Nc2ccc(Sc3ccc4c(c3)sc3ncc(C(=O)O)n34)cc2)cc1` [Compound 10, 7-{[4-({[3-tert-butyl-1-(4-methoxyphenyl)-1H-pyrazol-5-yl]carbamoyl}amino)phenyl]sulfanyl}imidazo[2,1-b][1,3]benzothiazole-3-carboxylic acid] fall in the same range of inhibition at 1 µM: 80 to 100% for the first, 80 to 100% for the second.

`CCOC(=O)c1cnc2sc3cc(Oc4ccccc4CNC(=O)Nc4cc(C(C)(C)C)nn4-c4ccc(OC)cc4)ccc3n12` [Compound 12, ethyl 7-{2-[({[3-tert-butyl-1-(4-methoxyphenyl)-1H-pyrazol-5-yl]carbamoyl}amino)methyl]phenoxy}imidazo[2,1-b][1,3]benzothiazole-3-carboxylate] and `CCOC(=O)c1cnc2sc3cc(Oc4ccccc4CNC(=O)Nc4cc(C(C)(C)C)nn4-c4ccc(O)cc4)ccc3n12` [Compound 17, Ethyl 7-{2-[({[3-tert-butyl-1-(4-hydroxyphenyl)-1H-pyrazol-5-yl]carbamoyl}amino)methyl]phenoxy}imidazo[2,1-b][1,3]benzothiazole-3-carboxylate] fall in the same range of inhibition at 1 µM: 80 to 100% for the first, 80 to 100% for the second.

`CC(C)(C)c1cc(NC(=O)NCc2ccccc2Oc2ccc3c(c2)sc2ncc(C(=O)O)n23)n(-c2ccc(O)cc2)n1` [Compound 13, 7-{2-[({[3-tert-butyl-1-(4-hydroxyphenyl)-1H-pyrazol-5-yl]carbamoyl}amino)methyl]phenoxy}imidazo[2,1-b][1,3]benzothiazole-3-carboxylic acid] and `CC(C)(C)c1cc(NC(=O)NCc2ccccc2Oc2ccc3c(c2)sc2ncc(C(=O)NCCO)n23)n(-c2ccc(O)cc2)n1` [Compound 14, 7-{2-[({[3-tert-butyl-1-(4-hydroxyphenyl)-1H-pyrazol-5-yl]carbamoyl}amino)methyl]phenoxy}-N-(2-hydroxyethyl)imidazo[2,1-b][1,3]benzothiazole-3-carboxamide] fall in the same range of inhibition at 1 µM: 80 to 100% for the first, 80 to 100% for the second.

First: COc1ccc(-n2nc(C(C)(C)C)cc2NC(=O)Nc2ccc(Oc3ccc4c(c3)sc3ncc(CO)n34)cc2)cc1 [Compound 15, 1-[3-tert-butyl-1-(4-methoxyphenyl)-1H-pyrazol-5-yl]-3-(4-{[3-(hydroxymethyl)imidazo[2,1-b][1,3]benzothiazol-7-yl]oxy}phenyl)urea]
Second: CC(C)(C)c1cc(NC(=O)Nc2ccc(Sc3ccc4c(c3)sc3ncc(CO)n34)cc2)n(-c2ccc(O)cc2)n1 [Compound 18, 1-[3-tert-butyl-1-(4-hydroxyphenyl)-1H-pyrazol-5-yl]-3-(4-{[3-(hydroxymethyl)imidazo[2,1-b][1,3]benzothiazol-7-yl]sulfanyl}phenyl)urea]
The inhibition at 1 µM of the first is higher: 60 to 80% for the first, 40 to 60% for the second.

`CC(C)(C)c1cc(NC(=O)NCc2ccccc2Oc2ccc3c(c2)sc2ncc(CO)n23)n(-c2ccc(O)cc2)n1` [Compound 16, 1-[3-tert-butyl-1-(4-hydroxyphenyl)-1H-pyrazol-5-yl]-3-(2-{[3-(hydroxymethyl)imidazo[2,1-b][1,3]benzothiazol-7-yl]oxy}benzyl)urea] and `CC(C)(C)c1cc(NC(=O)NCc2ccccc2Oc2ccc3c(c2)sc2ncc(CSCCO)n23)n(-c2ccc(O)c(Cl)c2)n1` [Compound 23, 1-[3-tert-butyl-1-(3-chloro-4-hydroxyphenyl)-1H-pyrazol-5-yl]-3-{2-[(3-{[(2-hydroxyethyl)sulfanyl]methyl}imidazo[2,1-b][1,3]benzothiazol-7-yl)oxy]benzyl}urea] fall in the same range of inhibition at 1 µM: 80 to 100% for the first, 80 to 100% for the second.

`CC(C)(C)c1cc(NC(=O)NCc2ccccc2Oc2ccc3c(c2)sc2ncc(C(=O)O)n23)n(-c2ccc(O)c(Cl)c2)n1` [Compound 19, 7-{2-[({[3-tert-butyl-1-(3-chloro-4-hydroxyphenyl)-1H-pyrazol-5-yl]carbamoyl}amino)methyl]phenoxy}imidazo[2,1-b][1,3]benzothiazole-3-carboxylic acid] and `CC(C)(C)c1cc(NC(=O)NCc2ccccc2Oc2ccc3c(c2)sc2ncc(C(=O)NCCO)n23)n(-c2ccc(O)c(Cl)c2)n1` [Compound 20, 7-{2-[({[3-tert-butyl-1-(3-chloro-4-hydroxyphenyl)-1H-pyrazol-5-yl]carbamoyl}amino)methyl]phenoxy}-N-(2-hydroxyethyl)imidazo[2,1-b][1,3]benzothiazole-3-carboxamide] fall in the same range of inhibition at 1 µM: 80 to 100% for the first, 80 to 100% for the second.

First: CC(C)(C)c1cc(NC(=O)NCc2ccccc2Oc2ccc3c(c2)sc2ncc(C(=O)NC(CO)CO)n23)n(-c2ccc(O)c(Cl)c2)n1 [Compound 21, 7-{2-[({[3-tert-butyl-1-(3-chloro-4-hydroxyphenyl)-1H-pyrazol-5-yl]carbamoyl}amino)methyl]phenoxy}-N-(1,3-dihydroxypropan-2-yl)imidazo[2,1-b][1,3]benzothiazole-3-carboxamide]
Second: CC(C)(C)c1cc(NC(=O)NCc2ccccc2Sc2ccc3c(c2)sc2ncc(C(=O)O)n23)n(-c2ccc(O)c(Cl)c2)n1 [Compound 24, 7-({2-[({[3-tert-butyl-1-(3-chloro-4-hydroxyphenyl)-1H-pyrazol-5-yl]carbamoyl}amino)methyl]phenyl}sulfanyl)imidazo[2,1-b][1,3]benzothiazole-3-carboxylic acid]
The inhibition at 1 µM of the first is higher: 80 to 100% for the first, 40 to 60% for the second.
